We go through six compounds from patent US9932326B2, “Potent and selective inhibitors of hepatitis C virus” (Cocrystal Pharma, LLC, priority 2010, dated 2018).

Structures are written as SMILES. A value given as a limit tells only on which side of the number the result lay.

What all share (format): cell-based
Data set [1] deals with human PBM cells. Nature of the data set: Cellular toxicity assay, PBM cells. As to the method:
(§1) The toxicity of the compounds was assessed in Vero, human PBM, CEM (human lymphoblastoid), MT-2, and HepG2 cells, as described previously (see Schinazi R. F., Sommadossi J.-P., Saalmann V., Cannon D. L., Xie M.-Y., Hart G. C., Smith G. A. & Hahn E. F. Antimicrob. Agents Chemother. 1990, 34, 1061-67). Cycloheximide was included as positive cytotoxic control, and untreated cells exposed to solvent were included as negative controls. The cytotoxicity IC50 was obtained from the concentration-response curve using the median effective method described previously (see Chou T.-C. & Talalay P. Adv. Enzyme Regul. 1984, 22, 27-55; Belen'kii M. S. & Schinazi R. F. Antiviral Res. 1994, 25, 1-11).

In data set [2] the test system is CEM (human lymphoblastoid) cells. Nature of the data set: Cellular toxicity assay, CEM cells. Here is the method:
as §1

For data set [3], the system named is Vero cells. Nature of the data set: Cellular toxicity assay, Vero cells. Here is the method: as §1

For `COC(=O)N[C@H](C(=O)N1C[C@@H](n2cc(C(=O)OC)nn2)C[C@H]1c1ncc(-c2ccc(-c3ccc(-c4cnc([C@@H]5C[C@H](n6cc(C(=O)OC)nn6)CN5C(=O)[C@@H](NC(=O)OC)C(C)C)[nH]4)cc3)cc2)[nH]1)C(C)C`, the “Toxicities (μM) PBM” value in data set [1] is 53 µM. Moreover, in data set [2], the “Toxicities (μM) CEM” value came out at 13.5 µM. For the same compound, the “Toxicities (μM) VERO” value in data set [3] is at least 100 µM.

Regarding `COC(=O)N[C@H](C(=O)N1C[C@@H](n2cc(COC(C)=O)nn2)C[C@H]1c1ncc(-c2ccc(-c3ccc(-c4cnc([C@@H]5C[C@H](n6cc(COC(C)=O)nn6)CN5C(=O)[C@@H](NC(=O)OC)C(C)C)[nH]4)cc3)cc2)[nH]1)C(C)C`, the “Toxicities (μM) PBM” value in data set [1] was found to be 53 µM. Besides, the “Toxicities (μM) CEM” value in data set [2] is 13.5 µM. Further, in data set [3], the “Toxicities (μM) VERO” value was at least 100 µM.

As to `COC(=O)N[C@H](C(=O)N1C[C@@H](SC)C[C@H]1c1ncc(-c2ccc(-c3ccc(-c4cnc([C@@H]5C[C@H](SC)CN5C(=O)[C@@H](NC(=O)OC)C(C)C)[nH]4)cc3)cc2)[nH]1)C(C)C`, in data set [1], the “Toxicities (μM) PBM” value stood at 15.6 µM. For the same compound, the “Toxicities (μM) CEM” value in data set [2] worked out at 13.3 µM. Moreover, the “Toxicities (μM) VERO” value in data set [3] was found to be 10.9 µM.

For the compound `COC(=O)N[C@H](C(=O)N1C[C@H](n2cc(-c3ccccc3)nn2)C[C@H]1c1ncc(-c2ccc(-c3ccc(-c4cnc([C@@H]5C[C@@H](n6cc(-c7ccccc7)nn6)CN5C(=O)[C@@H](NC(=O)OC)C(C)C)[nH]4)cc3)cc2)[nH]1)C(C)C`, the “Toxicities (μM) PBM” value in data set [1] was over 100 µM. The “Toxicities (μM) CEM” value in data set [2] was over 100 µM. In addition, the “Toxicities (μM) VERO” value in data set [3] was over 100 µM.

Take `COC(=O)N[C@H](C(=O)N1C[C@H](n2ccnn2)C[C@H]1c1ncc(-c2ccc(-c3ccc(-c4cnc([C@@H]5C[C@@H](n6cc([Si](C)(C)C)nn6)CN5C(=O)[C@@H](NC(=O)OC)C(C)C)[nH]4)cc3)cc2)[nH]1)C(C)C`: the “Toxicities (μM) PBM” value in data set [1] stood at 3 µM. The “Toxicities (μM) CEM” value in data set [2] was 16.2 µM. Besides, in data set [3], the “Toxicities (μM) VERO” value is over 100 µM.

In the case of `COC(=O)N[C@H](C(=O)N1C[C@H](n2cc([Si](C)(C)C)nn2)C[C@H]1c1ncc(-c2ccc(-c3ccc(-c4cnc([C@@H]5C[C@@H](n6cc([Si](C)(C)C)nn6)CN5C(=O)[C@@H](NC(=O)OC)C(C)C)[nH]4)cc3)cc2)[nH]1)C(C)C`, in data set [1], the “Toxicities (μM) PBM” value was over 100 µM. In addition, the “Toxicities (μM) CEM” value in data set [2] was 25.2 µM. Moreover, the “Toxicities (μM) VERO” value in data set [3] is over 100 µM.
